Source: patent publication US20230287066A1, “MATERIALS AND METHODS FOR MAKING SEXUAL STAGE […]” (The Penn State Research Foundation, priority 2020, published 2023)

Assays:
[1] = tested on: P. falciparum expressing a regulatable AP2-G polypeptide and having a reduced level of histone modification at the 3′ pairing element of the pfap2-g locus; assay: Gametocytogenesis (percentage sexual conversion) of engineered parasites treated with Shld1; assay type: cell-based, Plasmodium falciparum; conditions: in the presence of a Shld1 molecule; 3′ pairing element mutant AP2-G-HA-FKBP parasites
Experimental: The number of gametocytes was determined by splitting the culture in two and treating half with Shld1 and half with the same volume of the vehicle (Day 1). The parental cell line (AP2-G-HA-FKBP) and the pairing element mutant were tested in parallel. After 48 hours (on Day 3), the number of parasites present was counted by microscopy and N-acetylglucosamine was added to all cultures to specifically kill asexual parasites. On Day 9, when gametocytes developed enough that they were readily distinguished from asexual stage parasites by morphology, the number of gametocytes were counted by microscopy. Percentage sexual conversion was calculated by dividing this by the proportion of parasite-infected red blood cells on Day 3.

[2] = tested on: AP2-G-HA-FKBP polypeptide; assay: Conditional knockdown of PfAP2-G fused to FKBP destabilization domain; assay type: cell-based, Plasmodium falciparum; conditions: in the presence of Shld1; AP2-G-HA-FKBP parasites (FIG. 1)
From the text: A regulatable knockdown of PfAP2-G was generated by engineering a transgenic line with AP2-G fused to an FKBP destabilization domain (DD) as described elsewhere (see, e.g., Kafsack et al., Nature, 507(7491):248-52 (2014)). Briefly, a construct encoding an AP2-G polypeptide fused to an HA-tag and an FKBP DD (e.g., an AP2-G-HA-FKBP polypeptide) was stably integrated into the genome of Plasmodium falciparum lines.
In the absence of the ligand Shield-1 (Shld1), the FKBP destabilization domain was unstable and targets fusion proteins for proteolytic degradation.

`CC[C@H](C(=O)N1CCCC[C@H]1C(=O)O[C@H](CCc1ccc(OC)c(OC)c1)c1cccc(OCCN2CCOCC2)c1)c1cc(OC)c(OC)c(OC)c1` [Shld1] was tested, and the “P. falciparum that commit to gametocytogenesis and form sexual stage parasites” value [1] was “over 60%” and the “stabilization of FKBP destabilization domain / gametocyte production” value [2] was “gametocytes were produced”.
